Experimental data taken from PubChem BioAssay (NCI).
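Briefly, cells in 96-well plates were exposed to five compound concentrations for 48 h, and endpoints were estimated by linear interpolation. TGI marks complete inhibition of growth.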 Where a SMILES comes first, the peptide text is derived from it. The star is where a group is joined. Boc = CC(C)(C)OC(=O)*; OBn = c1ccc(CO*)cc1

Assays:
Assay in all cases: inhibition of tumour cell growth, NCI panel, 48 h
[1] = system: 786-0 renal
[2] = system: A549 NSCLC
[3] = system: HCT-15 colon
[4] = system: HOP-62 NSCLC
[5] = system: HS 578T breast
[6] = system: HT29 colon
[7] = system: LOX IMVI melanoma
[8] = system: MCF7 breast
[9] = system: MDA-MB-231 breast
[10] = system: MOLT-4 leukemia
[11] = system: NCI-H226 lung
[12] = system: NCI-H23 lung
[13] = system: NCI-H522 lung
[14] = system: OVCAR-5 ovarian
[15] = system: PC-3 prostate
[16] = system: SF-295 CNS
[17] = system: SF-539 CNS
[18] = system: SK-MEL-2 melanoma
[19] = system: SK-MEL-28 melanoma
[20] = system: UO-31 renal

Compound	TGI [1] [µM]	TGI [2] [µM]	TGI [3] [µM]	TGI [4] [µM]	TGI [5] [µM]	TGI [6] [µM]	TGI [7] [µM]	TGI [8] [µM]	TGI [9] [µM]	TGI [10] [µM]	TGI [11] [µM]	TGI [12] [µM]	TGI [13] [µM]	TGI [14] [µM]	TGI [15] [µM]	TGI [16] [µM]	TGI [17] [µM]	TGI [18] [µM]	TGI [19] [µM]	TGI [20] [µM]
Cc1ccc(C2SC(N)=Nc3c2c(C)nn3C(=O)c2ccc(Cl)cc2)cc1 (stereo unspecified)	> 10	> 10	> 10	> 10	> 10	> 10	> 10	> 10	> 10	> 10	> 10	> 10	> 10	> 10	> 10	> 10	> 10	> 10	> 10	–
CC(=O)[C@]1(C)[C@H](C)O[C@](C)(CO)[C@H]1O[Si](C)(C)c1ccccc1	> 100	> 100	84.6	> 100	> 100	> 100	44.4	> 100	> 100	> 100	> 100	81	52.3	> 100	> 100	> 100	> 100	> 100	> 100	46.6
Cc1ccc(N=Nc2c(C)nn(C(=O)CC(=O)Nc3ccc(Cl)cc3)c2C)cc1C	> 100	> 100	–	> 100	30.7	> 100	> 100	> 100	> 100	66	> 100	> 100	> 100	> 100	> 100	> 100	> 100	> 100	> 100	> 100
O=[N+]([O-])c1cc(C(F)(F)F)ccc1S(=O)(=O)N[C@@H]1CCCC[C@H]1NS(=O)(=O)c1ccc(C(F)(F)F)cc1[N+](=O)[O-]	> 42.2	> 31.3	10.1	30.9	8.27	22.7	3.24	5.2	8.02	–	> 46.6	6.92	4.76	> 100	14.1	9.38	3.56	9.88	33.3	> 23.2
CC(C)C(NC(=O)CNC(=O)C1CCCN1C(=O)C(NC(=O)OC(C)(C)C)C(C)C)C(=O)NCC(=O)OCc1ccccc1 (stereo unspecified) (Boc-VPGVG-OBn; configuration not given here)	> 100	> 100	> 100	> 100	> 100	> 100	> 100	> 100	> 100	> 100	> 100	> 100	> 100	> 100	> 100	> 100	> 100	> 100	> 100	> 100
O=C1c2ccccc2-n2c1nc1cc(Cl)ccc1c2=O	> 100	> 100	> 100	> 100	> 100	> 100	76.2	> 100	> 100	> 100	> 100	> 100	> 100	> 100	> 100	> 100	> 100	> 100	–	> 100
CCOC(=O)c1nc2cc(C(F)(F)F)ccc2nc1Oc1ccc(C(=O)OC)cc1	> 100	> 100	> 100	–	> 100	–	> 100	> 100	> 100	> 100	> 100	–	> 100	> 100	> 100	> 100	> 100	> 100	> 100	> 100
O=C(/C=C/c1ccc(O)cc1)c1cc(O)cc(O)c1	30.6	30.6	16.9	29	> 100	35	17.3	12.3	30.4	45.3	50.3	43.3	18.1	29	23.2	30.6	26.5	34.9	42.7	21.6
CCCCCCCCCCCCCCCCNc1ccc2c(c1)OCCOCCOCCOCCO2	13.8	14.5	13.5	7.28	9.1	10.9	5.42	13.2	11.9	6.19	7.07	11.5	8.68	14.2	6.43	7.94	9.43	4.44	18.8	8.88
Nc1nc(Sc2ccc([N+](=O)[O-])cn2)c2[nH]cnc2n1	> 52.8	62.1	> 73.3	> 100	77.8	> 74.3	17.1	> 100	35.1	> 35.8	57.3	31.2	40.2	> 100	47.6	> 94.2	> 100	10.2	> 100	24.7
COc1cc2c(cc1O)-c1c(OC)c(O)cc3c1C(C2)N(C)CC3 (stereo unspecified)	> 100	> 100	> 100	–	> 100	> 100	> 100	> 100	> 100	> 100	> 100	> 100	> 100	> 100	> 100	> 100	> 100	> 100	–	> 100
CCN(CC)c1nc(=O)c(C(=O)C(C)(C)C)c(C(C)(C)C)o1	> 100	> 100	> 100	> 100	> 100	> 100	> 100	> 100	> 100	> 100	> 100	> 100	> 100	> 100	> 100	> 100	> 100	> 100	> 100	–
O=C(Nc1ccc(N2C(=O)CSC2c2cccs2)cc1)c1ccc(N2C(=O)CSC2c2cccs2)cc1 (stereo unspecified)	> 100	> 100	> 100	> 100	> 100	> 100	> 100	> 100	> 100	> 100	–	96.4	> 100	> 100	> 100	> 100	> 100	> 100	> 100	> 100
O=C1C(Cl)C(c2cccc(Br)c2)N1c1c(O)c(Cl)cc(Br)c1Cl (stereo unspecified)	> 100	40	19.3	32.4	24	23	28.5	25.8	46	35.7	51.8	37.9	30	56.5	75.1	31.1	32.6	25	–	40
Cc1cn(C2CC(N=[N+]=[N-])C(CO)O2)c(=O)n(CCCCO)c1=O (stereo unspecified)	> 100	> 100	> 100	> 100	> 100	> 100	> 100	> 100	> 100	> 100	> 100	> 100	> 100	> 100	> 100	> 100	> 100	> 100	> 100	> 100
CCOC(=O)NC(C(C(=O)OCC)C(=O)OCC)(C(F)(F)F)C(F)(F)F	> 100	> 100	> 100	> 100	> 100	> 100	> 100	> 100	> 100	> 100	> 100	> 100	> 100	> 100	> 100	> 100	> 100	> 100	> 100	> 100
CC1C(=O)CC[C@@]2(C)C(=O)CCCC12O (stereo partly specified)	> 100	> 100	> 100	> 100	> 100	> 100	> 100	> 100	> 100	> 100	> 100	> 100	> 100	> 100	> 100	> 100	> 100	> 100	> 100	> 100
CC(=O)NC(CCCOC(C)=O)C(=O)NC(CCCOC(C)=O)C(=O)NC(CCCOC(C)=O)C(=O)NC(Cc1ccc([N+](=O)[O-])cc1)C(=O)NCC(=O)OCc1ccccc1 (stereo unspecified)	> 100	> 100	> 100	> 100	> 100	> 100	> 100	> 100	> 100	> 100	> 100	> 100	> 100	> 100	> 100	> 100	> 100	> 100	> 100	> 100
O=C1Cc2c(-c3ccccc3)cc(-c3ccc4ccccc4c3)nc2-c2ccccc2N1	> 100	> 100	> 100	> 100	7.77	15.9	> 100	> 100	69.6	> 100	> 100	> 100	26.1	> 100	45.5	> 100	> 100	> 100	> 100	> 100
Cc1ccc(S(=O)(=O)c2ccsc2NC(=O)c2ccccc2)cc1	> 79.6	> 100	> 100	45	76.2	> 100	> 100	> 100	> 79.4	> 100	> 100	> 31.6	> 100	> 100	> 100	> 100	> 100	> 100	> 100	> 100
O=C(Oc1ccc(OC(Oc2ccccc2)c2ccccc2)cc1)c1ccccc1 (stereo unspecified)	> 31.6	> 31.6	–	19	> 31.6	> 31.6	> 31.6	> 31.6	> 31.6	> 31.6	> 31.6	24.4	> 100	> 100	> 31.6	25.8	> 31.6	36.6	31	> 31.6
Cc1nc2ccc(S(=O)(=O)Nc3ccccc3Cl)cc2c(=O)n1NC(=O)CNc1ccccc1Cl	> 100	> 100	> 100	> 100	> 100	> 100	> 100	> 100	> 100	> 100	> 100	> 100	> 100	> 100	> 100	> 100	> 100	> 100	> 100	> 100
CCN(CC)C(=O)N[C@@H](Cc1ccccc1)C(=O)NC	> 100	> 100	> 100	> 100	> 100	> 100	> 100	> 100	> 100	> 100	> 100	> 100	> 100	> 100	> 100	> 100	–	> 100	> 100	> 100
